Data on 3 molecules can be found in patent publication US20120328696A1, “ANTI-PARKINSONIAN COMPOUND ACETYLSALICYLIC ACID MALTOL ESTER” (Hutecs Korea Pharmaceutical Co., Ltd., priority 2008, published 2012).

Assay [1] deals with GPx-1 (+/+)- and GPx-1 (−/−)-mice. As to the kind of experiment: Rota-rod test after MA. Type of assay: in vivo. To be noted: MA 8 mg/kg i.p. x4, GPx-1 (+/+) and (−/−) mice. The method, then:
The mice received four times of MA (8 mg/kg, ip) or saline as a 2 hr-time interval. Chemicals (AME, EBS, and PKC inhibitors) were administrated for 5 consecutive days (twice daily), and were given 2 times at 4 hr and 30 min before the first MA injection as shown in the experimental schedule. Animals were sacrificed at 4 hrs and 3 days after the final MA administration.
The apparatus (Ugo Basile model 7650, Comerio, VA, Italy) consisted of a base platform and a rotating rod with a nonslippery surface. The rod was placed at a height of 15 cm from the base. The rod, 30 cm in length, was divided into 5 equal sections by 6 opaque disks (so that the subjects cannot be distracted by one another) To assess motor performance, the mice first trained on the apparatus 2 minutes at a constant rate of 4 r.p.m. per 30 s prior to the test. The test was performed 30 minutes after training and an accelerating paradigm was applied, starting from a rate of 4 r.p.m. to a maximum speed of 40 r.p.m., then the rotation speed was kept constant at 40 r.p.m. for a maximum of 300 s. The duration for which the animal could maintain balance on the rotating drum was measured as the rotarod latency, with a maximal cut-off time of 300 s.
A general note: The rotarod test checks motor coordination on a turning rod.

Assay [2] relates to C57BL/6 mice. Briefly: Locomotor activity after MPTP. To be noted: AME 25 mg/kg p.o.; MPTP 25 mg/kg i.p. once a day for 7 days; 3 days after final MPTP. It is filed as in vivo. The method, then:
(§1) AME (25 mg/kg, p.o) administration was started 4 days (twice daily) before the first injection of MPTP and continued for 7 consecutive days (once a day). MPTP was injected (25 mg/kg, i.p) once a day 1 h after AME treatment for consecutive 7 days.
Locomotor activity measured for 30 min 3 days after the last MPTP administration using an automated video-tracking system (Noldus Information Technology, Wagenin, The Netherlands). Eight test boxes (40×40×30 cm high) were operated simultaneously by an IBM computer. Animals were studied individually during locomotion in each test box, where they were adapted for 5 min before starting the experiment. […] The distance traveled in cm by the animals in horizontal locomotor activity was analyzed. Data were collected and analyzed between 09:00 and 17:00 h (Kim et al., 2001).

The test system of assay [3] is C57BL/6 mice. Briefly: Rota-rod test after MPTP. Type of assay: in vivo. To be noted: AME 25 mg/kg p.o.; MPTP 25 mg/kg i.p. once a day for 7 days; 3 days after final MPTP. The method, then: as §1
The apparatus (Ugo Basile model 7650) consisted of a base platform and a rotating rod with a nonslippery surface. The rod was placed at a height of 15 cm from the base. The rod, 30 cm in length, was divided into 5 equal sections by 6 opaque disks (so that the subjects cannot be distracted by one another). To assess motor performance, the mice were first trained on the apparatus 2 minutes at a rate 4 r.p.m. per 30 s prior to the test. The test was performed 30 minutes after training and an accelerating paradigm was applied at a rate 4 r.p.m. per 30 s, starting from 4 r.p.m. to a maximum speed of 40 r.p.m., then the rotation speed was kept constant at 40 r.p.m. for a maximum of 300 s. The duration for which the animal could maintain balance on the rotating drum was measured as the rotarod latency, with a maximal cut-off time of 300 s.

The test system of assay [4] is tyrosine hydroxylase. Briefly: Striatal and nigral TH-like immunoreactivity after MPTP (immunocytochemistry). It is filed as in vivo, mice. The note with it: AME 25 mg/kg p.o., MPTP 25 mg/kg i.p. x7 days. The method, then: as §1
Animals were sacrificed at 3 days after final MPTP-treatment. They were anesthetized with 60% urethane and perfused transcardially with 200 ml of 50 mM phosphate buffered saline (PBS), followed by 50 ml of paraformaldehyde in PBS. The brain were fixed at 4° C. for 24 h in the same fixative and then cryoprotected in 30% sucrose. The brains were sectioned on a horizontal sliding microstome into 35 μm transverse free-floating sections. The immunocytochemistry was performed as described previously (Kim et al., 2000a; Kim et al., 2000b). Briefly, prior to incubation with the primary antibodies, sections were preincubated with 0.3% hydrogen peroxide in PBS for 30 min (to block endogenous peroxidase activity), then in PBS containing 0.4% Triton X-100 for 20 min and 1% normal serum for 20 min. […] The quantitative analyses were performed using a computer-based image analysis system (Optimas version 6.2; Neurolucida Program) (Kim et al., 1999).

The conditions of assay [5]: Kim et al., 1997a; cited from earlier work.
For assay [6] the following is noted: in vitro; Han et al., 1994; cited from earlier work.
Assay [7] has as its system glutathione peroxidase (GPx). To be noted: Kim et al., 1996; cited from earlier work.
The conditions of assay [8]: Kim et al., 1997b; cited from earlier work.
Where [9] appears, read: p.o., AME 25 or 50, EBS 10 or 20, rottlerin 10 or 20 mg/kg.

As for `CC(=O)Oc1ccccc1C(=O)Oc1c(C)occc1=O` [AME, 3-(2-methyl-4-pyronyl)-2-acetyloxybenzoate], in assay [1] (setting [9]), the “effect on MA-induced impairment in rota-rod performance” value (from here on “effect on MA-induced impairment”) was “inhibited these effects in a dose-dependent manner”. The “effect on MPTP-induced hypolocomotor activity” value in assay [2] was “significant attenuated”. Besides, the “effect on MPTP-induced impairment in rota-rod performance” value in assay [3] was “significantly attenuated”. In addition, the “effect on MPTP-induced decrease in striatal TH-IR” value in assay [4] (striatum) is on record as “significantly attenuated these decreases in TH-IR”. Besides, the “effect on MPTP-induced decrease in substantia nigra TH-IR” value in assay [4] (substantia nigra) is recorded as “significantly attenuated these decreases in TH-IR”. Also, the antithrombotic efficacy result in assay [5] was “antithrombotic efficacy”. In addition, the antioxidative efficacy result in assay [6] is on record as “antioxidative efficacy in vitro”. The “activity of glutathione peroxidase (GPx)” value in assay [7] is given as “elevating the activity of glutathione peroxidase (GPx)”. Besides, the neuroexcitotoxicity result in assay [8] is “attenuates neuroexcitotoxicity”.
Turning to `O=c1c2ccccc2[se]n1-c1ccccc1` [EBS, 2-phenyl-1,2-benzisoselenazol-3(2H)-one], in assay [1] (setting [9]), the “effect on MA-induced impairment” value is recorded as “inhibited these effects in a dose-dependent manner”.
As to `CC(=O)c1c(O)c(C)c(O)c(Cc2c(O)c3c(c(C(=O)/C=C/c4ccccc4)c2O)OC(C)(C)C=C3)c1O` [rottlerin], the “effect on MA-induced impairment” value in assay [1] (PKC inhibitors intra-striatal (chelerythrine 0.2 ug/head, rottlerin 3.0 ug/head significant)) is “attenuated the MA-behavioral impairments in a dose-dependent manner”; in assay [1] (setting [9]), “inhibited these effects in a dose-dependent manner”.
